Data taken from ChEMBL document CHEMBL1201862, “PubChem BioAssay data set” (2004).
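Where inhibition never reached the appropriate level, the endpoint shown equals the highest concentration tested. Otherwise, values were interpolated linearly from a five-concentration, 48-hour dose response in 96-well plates. GI50 marks 50% less growth.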 Calls of active or inactive are those of the source. Rule as the data show it: active = GI50 up to about 1.1 µM and inactive = higher.

Columns and labels:
Assay in all cases: inhibition of tumour cell growth, NCI panel, 48 h
[1] = test system: SF-295
[2] = test system: NCI-H23
[3] = test system: RPMI-8226
[4] = test system: SW-620
[5] = test system: NCI-H460
[6] = test system: Malme-3M
[7] = test system: CCRF-CEM
[8] = test system: IGROV-1
[9] = test system: RXF 393
[10] = test system: COLO 205
[11] = test system: KM12
[12] = test system: SF-268
[13] = test system: UACC-257
[14] = test system: ACHN
[15] = test system: OVCAR-8
[16] = test system: SNB-19
[17] = test system: SR
[18] = test system: TK-10

Measured: GI50

CCOC(=O)N[C@@H]1C(CC(=O)OC)O[C@H]2OC(C)(C)O[C@H]21 (stereo partly specified)
inactive: [1] > 100 µM | [2] > 100 µM | [3] > 100 µM | [4] > 100 µM | [5] > 100 µM | [6] > 100 µM | [7] > 100 µM | [8] > 100 µM | [9] > 100 µM | [10] > 100 µM | [11] > 100 µM | [12] > 100 µM | [13] > 100 µM | [14] > 100 µM

CCOP(=O)(OCC)/C(C#N)=C\c1ccc(OC(C)=O)cc1
inactive: [1] > 100 µM | [2] > 100 µM | [3] > 100 µM | [4] > 100 µM | [5] > 100 µM | [15] > 100 µM | [6] > 100 µM | [7] > 100 µM | [8] > 100 µM | [9] > 100 µM | [16] > 100 µM | [10] > 100 µM | [11] > 100 µM | [12] > 66.2 µM | [17] > 100 µM | [13] > 100 µM | [14] > 100 µM | [18] > 100 µM

Cc1cc2c(=O)c3ccc(Cl)cc3[nH]c2c(C(N)=O)c1C
inactive: [1] > 100 µM | [2] > 100 µM | [3] > 100 µM | [4] > 100 µM | [5] > 100 µM | [15] > 100 µM | [6] > 100 µM | [7] > 100 µM | [8] > 100 µM | [16] > 100 µM | [10] > 100 µM | [11] > 100 µM | [12] > 100 µM | [13] > 100 µM | [14] > 100 µM | [18] > 100 µM

NC(CCc1ncc(-c2ccccc2)s1)C(=O)O (stereo unspecified)
inactive: [1] > 100 µM | [2] > 100 µM | [3] > 100 µM | [4] > 100 µM | [5] > 100 µM | [15] > 100 µM | [6] > 100 µM | [7] > 100 µM | [8] > 100 µM | [9] > 100 µM | [16] > 100 µM | [10] > 100 µM | [11] > 100 µM | [13] > 100 µM | [14] > 100 µM | [18] > 100 µM

NC(CCSC(F)F)C(=O)O (stereo unspecified)
inactive: [1] > 100 µM | [2] > 100 µM | [4] > 100 µM | [5] > 100 µM | [15] > 100 µM | [6] > 100 µM | [7] > 100 µM | [8] > 100 µM | [9] > 100 µM | [16] > 100 µM | [10] 92.3 µM | [11] > 100 µM | [12] > 100 µM | [17] > 100 µM | [14] > 100 µM | [18] > 100 µM

NC(=O)C(=Cc1ccc(CP(=O)(O)O)cc1)C(N)=O
inactive: [1] > 100 µM | [2] > 100 µM | [3] > 100 µM | [4] > 100 µM | [5] > 100 µM | [15] > 100 µM | [6] > 100 µM | [8] > 100 µM | [9] > 100 µM | [16] > 100 µM | [10] > 100 µM | [11] > 100 µM | [13] > 100 µM | [14] > 100 µM | [18] > 100 µM

CCCN1CN(C(C(=O)N[C@@H]2C(=O)N3C2SC(C)(C)C3C(=O)O)c2ccccc2)CSC1=S (stereo partly specified)
inactive: [1] > 100 µM | [2] > 100 µM | [3] 53.6 µM | [4] 16.4 µM | [5] > 100 µM | [15] > 100 µM | [6] > 100 µM | [7] 95.9 µM | [8] > 100 µM | [16] > 100 µM | [10] 23.6 µM | [11] > 100 µM | [12] > 100 µM | [13] > 100 µM | [14] > 100 µM | [18] > 100 µM

COC1=CC(=O)C2C(C1=O)[C@@H]1c3ccccc3OC(C)(C)[C@H]21 (stereo partly specified)
inactive: [1] 71 µM | [2] 17.5 µM | [3] 26.6 µM | [4] 23.6 µM | [5] 60.5 µM | [15] 21.7 µM | [6] 18.9 µM | [7] 23.1 µM | [8] > 10 µM | [9] 14.1 µM | [16] 7.73 µM | [10] 19.2 µM | [11] 68.1 µM | [12] 29.6 µM | [13] 29.2 µM | [14] 14.2 µM | [18] 21.1 µM

CNS(=O)(=O)NN(C)S(=O)(=O)c1ccc(Br)cc1
inactive: [1] > 100 µM | [2] > 100 µM | [3] > 100 µM | [4] > 100 µM | [15] > 100 µM | [6] > 100 µM | [7] > 100 µM | [8] > 100 µM | [9] > 100 µM | [16] > 100 µM | [10] > 100 µM | [11] > 100 µM | [17] > 100 µM | [13] > 100 µM | [14] > 100 µM | [18] > 100 µM

O=C(CC1C(=O)Nc2ccccc2S1(=O)=O)Nc1cccc(Cl)c1 (stereo unspecified)
inactive: [1] 24.7 µM | [2] 18.9 µM | [3] 3.93 µM | [4] 17.7 µM | [5] 16.7 µM | [15] 17.8 µM | [6] 23.7 µM | [7] 22.3 µM | [8] 18.9 µM | [9] 16.3 µM | [16] 19.4 µM | [12] 16.2 µM | [17] 18.2 µM | [13] 19.8 µM | [14] 16.9 µM | [18] 22.3 µM

CCC1NCC(=O)c2c1[nH]c1ccccc21 (stereo unspecified)
inactive: [1] > 100 µM | [2] > 100 µM | [3] > 100 µM | [4] > 100 µM | [5] > 100 µM | [15] > 100 µM | [6] > 100 µM | [7] > 100 µM | [8] > 100 µM | [16] > 100 µM | [10] > 100 µM | [11] > 100 µM | [12] > 100 µM | [17] > 100 µM | [13] > 100 µM | [14] > 100 µM | [18] > 100 µM

O=C(O)CCSC(=O)Nc1ccc(/N=N/c2ccccc2)cc1
inactive: [1] 64 µM | [2] > 100 µM | [3] > 100 µM | [4] > 100 µM | [5] > 100 µM | [15] 61.1 µM | [6] > 100 µM | [7] 62.5 µM | [8] 92.9 µM | [9] > 100 µM | [16] > 100 µM | [10] > 100 µM | [11] > 100 µM | [12] > 100 µM | [17] 37.9 µM | [13] > 100 µM | [14] 43.6 µM | [18] > 100 µM

COc1ccc(/C(Cl)=C/c2cc(OC)ccc2OC)cc1
inactive: [1] 51.4 µM | [2] 53 µM | [3] 34.2 µM | [4] 48.1 µM | [15] 61.9 µM | [6] 93.3 µM | [7] 31.8 µM | [8] > 100 µM | [9] 20.5 µM | [16] > 100 µM | [10] > 100 µM | [12] 58.2 µM | [17] 30.6 µM | [13] > 100 µM | [14] 65.8 µM

COC(=O)c1c(-c2ccccc2)sc(-c2cccc3ccccc23)c1C(=O)OC
inactive: [1] > 100 µM | [2] > 100 µM | [3] > 100 µM | [4] > 100 µM | [5] > 100 µM | [15] > 100 µM | [6] 21.9 µM | [7] > 100 µM | [8] > 100 µM | [9] > 100 µM | [16] > 100 µM | [10] > 100 µM | [11] > 100 µM | [12] > 100 µM | [13] > 100 µM | [14] > 100 µM | [18] > 100 µM

COc1nc2nccc-2c2occn12
inactive: [1] > 100 µM | [2] > 100 µM | [3] > 100 µM | [4] > 100 µM | [5] > 100 µM | [15] > 100 µM | [6] > 100 µM | [8] > 100 µM | [9] > 100 µM | [16] > 100 µM | [10] > 100 µM | [11] > 100 µM | [12] > 100 µM | [13] > 100 µM | [14] > 100 µM | [18] > 100 µM

CCOc1ccc(/C=C/C(=O)c2sc(NNC(C)=O)nc2C)cc1
inactive: [1] > 100 µM | [2] > 100 µM | [3] > 100 µM | [4] > 100 µM | [5] > 100 µM | [15] > 100 µM | [6] > 100 µM | [7] > 100 µM | [8] > 100 µM | [9] > 100 µM | [16] > 100 µM | [10] > 100 µM | [11] > 100 µM | [12] > 100 µM | [13] > 100 µM | [14] > 100 µM | [18] > 100 µM

Cc1c(/C=N/NC(=O)c2cc(Br)cc(Br)c2O)c(=O)n(-c2ccccc2)n1C
inactive: [1] > 100 µM | [2] 77.3 µM | [3] 85.7 µM | [4] 53.7 µM | [5] 39.2 µM | [15] 27.5 µM | [6] 67.3 µM | [7] 23.3 µM | [8] 1.22 µM | [16] > 100 µM | [10] 61.2 µM | [11] 33.8 µM | [12] 83.8 µM | [13] 35.3 µM | [14] 51.1 µM | [18] 69.8 µM
